The record followed here is publication PMC7277649, “Amaryllidaceae Alkaloids of Belladine-Type from Narcissus pseudonarcissus cv. Carlton as New Selective Inhibitors of Butyrylcholinesterase” (Biomolecules, 2020).

One assay has as its target T1, hAChE (Homo sapiens, UniProt P22303).
T1 construct: 8.3 μL of either blood cell lysate or plasma dilutions; from tissue; host or cells: blood cell lysate
The experiment in a line: biochemical. The settings on record: for IC50: mean ± SD of three independent measurements, each in triplicate; for inhibition at 100 µM: tested at 100 µM compound concentration, read-out: %Inhibition hAChE ± SD. As to the method:
(§1) The hAChE and hBuChE activities were determined using a modified method of Ellman, as described. Briefly, hAChE and hBuChE activities were determined using a modified method of Ellman, with acetylthiocholine iodide (ATChI) and butyrylthiocholine iodide (BuTChI) as substrates, respectively. Briefly, 8.3 μL of either blood cell lysate or plasma dilutions (at least six different concentrations), 283 μL of 5 mM 5,5′-dithiobis-2-nitrobenzoic acid (DTNB) and 8.3 μL of the sample dilution in dimethyl sulfoxide (DMSO) (40 mM, 10 mM, 4 mM, 1 mM, 0.4 mM, and 0 mM) were added to the semi-micro cuvette. The reaction was initiated by addition of 33.3 μL 10 mM substrate (ATChI or BuTChI). The final proportion of DTNB and substrate was […]. The increase of absorbance (ΔA) at 436 nm for AChE and 412 nm for BuChE was measured for 1 min at 37 °C using a spectrophotometer (Synergy^TM HT Multi-Detection Microplate Reader). Each measurement was repeated six times for every concentration of enzyme preparation.

The target in another assay is T2, hBuChE (Homo sapiens, UniProt P06276).
T2 construct: 8.3 μL of either blood cell lysate or plasma dilutions; from tissue; host or cells: plasma
The experiment in a line: biochemical. The class given is biochemical. The settings on record: for IC50: mean ± SD of three independent measurements, each in triplicate; for SI for hBuChE: ratio hAChE IC50/hBuChE IC50; for inhibition at 100 µM: tested at 100 µM compound concentration, read-out: % inhibition hBuChE ± SD. How it is done:
as §1

In a further assay the target is T3, POP (EC 3.4.21.26) (Homo sapiens, UniProt P48147).
T3 sequence (P48147 1-710): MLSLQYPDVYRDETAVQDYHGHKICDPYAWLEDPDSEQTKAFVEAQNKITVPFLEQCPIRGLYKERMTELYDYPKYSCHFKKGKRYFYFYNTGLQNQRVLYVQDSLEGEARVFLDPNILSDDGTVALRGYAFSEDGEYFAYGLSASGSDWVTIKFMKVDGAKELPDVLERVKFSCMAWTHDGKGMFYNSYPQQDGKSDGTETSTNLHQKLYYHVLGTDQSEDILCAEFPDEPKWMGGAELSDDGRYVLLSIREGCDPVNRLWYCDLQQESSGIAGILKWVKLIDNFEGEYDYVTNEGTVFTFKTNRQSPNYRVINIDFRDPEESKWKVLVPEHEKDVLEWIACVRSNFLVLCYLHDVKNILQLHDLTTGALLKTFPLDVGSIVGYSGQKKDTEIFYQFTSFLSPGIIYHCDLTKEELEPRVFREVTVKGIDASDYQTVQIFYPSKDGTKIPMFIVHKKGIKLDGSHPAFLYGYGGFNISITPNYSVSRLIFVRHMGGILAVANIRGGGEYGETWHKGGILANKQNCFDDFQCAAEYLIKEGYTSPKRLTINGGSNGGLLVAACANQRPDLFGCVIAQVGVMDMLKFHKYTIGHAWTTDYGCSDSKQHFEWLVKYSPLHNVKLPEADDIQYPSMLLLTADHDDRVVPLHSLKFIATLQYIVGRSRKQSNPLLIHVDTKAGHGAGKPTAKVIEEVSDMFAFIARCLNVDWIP
Description: POP inhibition assay. The class given is biochemical. How it is done:
POP (EC 3.4.21.26) was dissolved in phosphate-buffered saline (PBS; 0.01 M Na/K phosphate buffer, pH 7.4, containing 137 mM NaCl and 2.7 mM KCl); the specific activity of the enzyme was 0.2 U/mL. The assay was performed in standard polystyrene 96-well microplates with a flat and clear bottom. Stock solutions of tested compounds were prepared in DMSO (10 mM). Dilutions (10^−3 to 10^−7 M) were prepared from the stock solution with deionized H2O; the control was performed with the same DMSO concentration. POP substrate, (Z)-Gly-Pro-p-nitroanilide, was dissolved in 50% 1,4-dioxane (5 mM). For each reaction, PBS (170 μL), tested compound (5 μL), and POP (5 μL) were incubated for 5 min at 37 °C. Then, substrate (20 μL) was added, and the microplate was incubated for 30 min at 37 °C. The formation of p-nitroanilide, directly proportional to the POP activity, was measured spectrophotometrically at 405 nm using a microplate ELISA reader (multimode microplate reader Synergy 2, BioTek Instruments, Winooski, VT, USA). […] All calculations were performed using GraphPad Prism software version 7.03 for Windows (GraphPad Software Inc., San Diego, California, USA).

Usually IC50 stands for the concentration at which inhibition is half-maximal. As a reminder, the inhibition is the drop in the measured response relative to a control, in per cent.

T1 sequence (P22303 other isoform, or with tags, fused parts or gaps): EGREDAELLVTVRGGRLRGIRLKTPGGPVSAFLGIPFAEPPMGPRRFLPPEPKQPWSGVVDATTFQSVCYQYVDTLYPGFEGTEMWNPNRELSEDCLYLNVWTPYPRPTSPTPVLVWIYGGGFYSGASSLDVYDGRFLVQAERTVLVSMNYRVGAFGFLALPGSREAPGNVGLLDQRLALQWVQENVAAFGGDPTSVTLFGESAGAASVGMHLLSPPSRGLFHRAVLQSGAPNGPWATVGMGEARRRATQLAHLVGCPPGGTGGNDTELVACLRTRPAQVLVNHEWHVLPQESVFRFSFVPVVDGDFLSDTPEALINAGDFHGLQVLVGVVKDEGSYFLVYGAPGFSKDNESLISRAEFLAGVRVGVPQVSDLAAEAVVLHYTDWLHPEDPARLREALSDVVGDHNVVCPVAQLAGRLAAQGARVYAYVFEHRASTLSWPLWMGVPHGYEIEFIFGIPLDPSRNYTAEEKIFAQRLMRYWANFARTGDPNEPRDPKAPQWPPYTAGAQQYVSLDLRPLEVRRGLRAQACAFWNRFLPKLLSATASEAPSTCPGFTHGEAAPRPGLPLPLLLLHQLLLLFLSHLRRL

Regarding `CN(CCc1ccc(O)cc1)Cc1cc2c(cc1-c1cccc3c1N(C)CC3)OCO2` [Carltonine B (14), carltonine B], the figures for the IC50 on hAChE and on hBuChE were more than 100 µM and 0.031 ± 0.001 µM, respectively. Further, the figures for the inhibition at 100 µM at hAChE and on hBuChE were 40 ± 1% and 99 ± 1%, respectively. Further, the “SI for hBuChE” value on hBuChE is recorded as more than 3226; at hBuChE (listed as carltonine B (14)), “higher than 100”.
`COc1ccc2c3c1O[C@H]1C=CC=C[C@@]31CCN(C)C2` [3,4-Anhydrogalanthamine (3), 3,4-anhydrogalanthamine]: at hAChE, the IC50 was more than 100 µM and the inhibition at 100 µM came out at 4%. At hBuChE, the IC50 is more than 100 µM and the inhibition at 100 µM turned out to be 28 ± 1%.
On to `COc1cc(CN(CCc2ccc(O)cc2)Cc2cc(OC)c(OC)cc2-c2cccc3c2N(C)CC3)c(-c2cccc3c2N(C)CC3)cc1OC` [Carltonine C (15), carltonine C], for which, on hAChE, the IC50 was more than 100 µM and the inhibition at 100 µM was 9%. Further, at hBuChE, the half-inhibitory concentration (IC50) turned out to be 14.8 ± 1.1 µM, the “SI for hBuChE” value is listed as more than 7 and the inhibition at 100 µM turned out to be 78 ± 1%.
In the case of `c1ccc2c(c1)ncc1cc3c(cc12)OCO3` [Trispheridine (2), trisphaeridine], on hAChE, the IC50 was more than 100 µM and the inhibition at 100 µM was found to be 6 ± 1%. Besides, on hBuChE, the IC50 was more than 100 µM and the inhibition at 100 µM amounted to 13 ± 1%.
Regarding `COc1cc(CN(C)CCc2ccc(O)cc2)c(-c2cccc3c2N(C)CC3)cc1OC` [Carltonine A (13), carltonine A], the results for the IC50 at hAChE, at hBuChE and on POP (EC 3.4.21.26) were more than 100 µM, 0.91 ± 0.02 µM and 143 ± 12 µM, respectively. For the same compound, the values for the inhibition at 100 µM on hAChE and on hBuChE were 2% and 98 ± 1%, respectively. The “SI for hBuChE” value on hBuChE is listed as more than 110; at hBuChE (listed as carltonine A (13)), “higher than 100”.
`COc1cc(C=O)c(-c2cccc3c2N(C)CC3)cc1OC` [Lycosinine B (1), lycosinine B]: the results for the IC50 on hAChE, at hBuChE and at POP (EC 3.4.21.26) were more than 100 µM, more than 100 µM and 258 ± 14 µM, respectively. In addition, the inhibition at 100 µM on hAChE amounted to 28 ± 1%; on hBuChE, 42 ± 1%.
